In patent US20260166128A1, “HUMAN AMYLIN ANALOG, AND DERIVATIVE THEREOF AND USE THEREOF” (priority 2022, published 2026):
Numbered stars: 1 amine (or outer) side, 2 acyl side, 3 side chain; on linkers, the order of the positions; unused ones are H or OH. Bridge positions count the residues as written; N and C are the ends. Square brackets hold non-standard residues; d marks the D form. Side chains are listed from the residue outwards. Peptide text beside a SMILES is read from it. * marks the point of attachment. C20 diacid = O=C(O)CCCCCCCCCCCCCCCCCCC(=O)*; C18 diacid = O=C(O)CCCCCCCCCCCCCCCCC(=O)*; γGlu = O=C(O)[C@H](CCC(=O)[*:2])N[*:1]; Hyp = O=C(O)[C@@H]1C[C@@H](O)CN1; AEEA = NCCOCCOCC(=O)O

How the values were obtained:
[1] = Freeze-thaw stability of derivatives (freeze-thaw yield by liquid chromatography); type: physicochemical; details: for Dissolution property: appearance after dissolution at 0.2 mg/ml in 20 mM phosphate buffer solution (PB) (pH 7.0); for Freeze storage property: appearance after overnight storage at −20° C. and thawing to room temperature, 0.2 mg/ml in 20 mM PB (pH 7.0); for Freeze storage yield: concentration of polypeptide after freezing and thawing / concentration before, by liquid chromatography, −20° C. overnight
Procedure, shortened: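 Freeze-thaw yield is the ratio of peptide concentration after versus before one overnight −20° C freeze and room-temperature thaw, both quantified by RP-HPLC of supernatant after centrifugation. Samples were 0.2 mg/ml freeze-dried derivative in 20 mM PB, pH 7.0.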

[2] = biological target: T1, human amylin receptor (Homo sapiens, UniProt O60896+P30988); experiment: Luciferase assay of amylin derivatives in amylin receptor/CRE-luc CHO cell line; type: cell-based; details: CHO-K1/Ga15/AMY3 CRE-luc cells, 24 hours incubation, F12 medium containing 10% FBS; read-out: EC50
T1 construct: host or cells: CHO-K1/Ga15/AMY3 cells, further stably transfected with a CRE-luciferase plasmid
T1 sequence (P30988 25-474): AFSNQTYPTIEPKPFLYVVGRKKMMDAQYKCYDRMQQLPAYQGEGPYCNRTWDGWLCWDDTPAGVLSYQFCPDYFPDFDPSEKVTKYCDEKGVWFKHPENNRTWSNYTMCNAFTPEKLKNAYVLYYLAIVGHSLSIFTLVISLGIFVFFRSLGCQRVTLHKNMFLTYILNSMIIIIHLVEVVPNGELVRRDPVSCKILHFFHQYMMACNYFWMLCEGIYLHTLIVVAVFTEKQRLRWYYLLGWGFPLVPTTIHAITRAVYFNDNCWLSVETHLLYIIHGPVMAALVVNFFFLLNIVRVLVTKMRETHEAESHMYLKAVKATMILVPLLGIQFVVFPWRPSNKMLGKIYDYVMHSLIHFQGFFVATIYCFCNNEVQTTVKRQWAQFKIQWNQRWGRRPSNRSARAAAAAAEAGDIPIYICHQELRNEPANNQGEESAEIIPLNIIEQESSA
T1 sequence (O60896 24-148 partner): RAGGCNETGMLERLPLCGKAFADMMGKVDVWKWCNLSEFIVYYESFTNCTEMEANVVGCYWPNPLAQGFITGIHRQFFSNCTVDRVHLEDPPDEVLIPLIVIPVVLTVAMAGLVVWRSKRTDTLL
Procedure: The experiment was intended to detect the activity or efficacy of the amylin derivatives on a human amylin receptor in vitro by luciferase assay.
50 μL of growth medium (F12 medium containing 10% FBS) was added into each well of a white 96-well plate, and the stably transfected amylin/CRE-lue CHO cells were inoculated into the white 96-well plate at a density of about 20,000 cells/well for activity determination.

| SMILES | Dissolution property [1] | Freeze storage property [1] | Freeze storage yield [1] | EC50 [2] |
| --- | --- | --- | --- | --- |
| CC[C@H](C)[C@H](NC(=O)[C@@H]1CCCN1C(=O)CNC(=O)[C@H](CC(C)C)NC(=O)[C@H](CC(N)=O)NC(=O)[C@H](CC(N)=O)NC(=O)[C@H](CO)NC(=O)[C@H](CO)NC(=O)[C@H](Cc1c[nH]cn1)NC(=O)[C@H](CCCNC(=N)N)NC(=O)[C@H](CC(C)C)NC(=O)[C@H](Cc1ccccc1)NC(=O)[C@H](CC(=O)O)NC(=O)[C@H](C)NC(=O)[C@H](CC(C)C)NC(=O)[C@H](CCCNC(=N)N)NC(=O)[C@H](CCC(N)=O)NC(=O)[C@@H](NC(=O)[C@H](C)NC(=O)[C@@H]1CSSC[C@H](NC(=O)[C@H](CCCCN)NC(=O)COCCOCCNC(=O)CC[C@H](NC(=O)CCCCCCCCCCCCCCCCC(=O)O)C(=O)O)C(=O)N[C@@H](CC(N)=O)C(=O)N[C@@H]([C@@H](C)O)C(=O)N[C@@H](C)C(=O)N[C@@H]([C@@H](C)O)C(=O)N1)[C@@H](C)O)C(=O)N[C@@H](CC(C)C)C(=O)N1CCC[C@H]1C(=O)N1CCC[C@H]1C(=O)N[C@H](C(=O)N[C@@H](CC(N)=O)C(=O)N[C@H](C(=O)NCC(=O)N[C@@H](CO)C(=O)N[C@@H](CC(N)=O)C(=O)N[C@H](C(=O)N1C[C@H](O)C[C@H]1C(N)=O)[C@@H](C)O)C(C)C)[C@@H](C)O [PD125] ({C18 diacid-γGlu-AEEA}-KCNTATCATQRLADFLRHSSNNLGPILPPTNVGSNT[Hyp]-NH2; disulfide 2-7 (inferred)) | Clear | Clear | 95.59% | 0.01 nM |
| CC[C@H](C)[C@H](NC(=O)[C@@H]1CCCN1C(=O)[C@H](CCCCNC(=O)CC[C@H](NC(=O)CCCCCCCCCCCCCCCCCCC(=O)O)C(=O)O)NC(=O)[C@H](CC(C)C)NC(=O)[C@H](CC(N)=O)NC(=O)[C@H](CC(N)=O)NC(=O)[C@H](CO)NC(=O)[C@H](CO)NC(=O)[C@H](Cc1c[nH]cn1)NC(=O)[C@H](CCCNC(=N)N)NC(=O)[C@H](CC(C)C)NC(=O)[C@H](Cc1ccccc1)NC(=O)[C@H](CC(=O)O)NC(=O)[C@H](C)NC(=O)[C@H](CC(C)C)NC(=O)[C@H](CCCNC(=N)N)NC(=O)[C@H](CCC(N)=O)NC(=O)[C@@H](NC(=O)[C@H](C)NC(=O)[C@@H]1CSSC[C@H](NC(=O)[C@@H](N)CCCNC(=N)N)C(=O)N[C@@H](CC(N)=O)C(=O)N[C@@H]([C@@H](C)O)C(=O)N[C@@H](C)C(=O)N[C@@H]([C@@H](C)O)C(=O)N1)[C@@H](C)O)C(=O)N[C@@H](CC(C)C)C(=O)N1CCC[C@H]1C(=O)N1CCC[C@H]1C(=O)N[C@H](C(=O)N[C@@H](CC(N)=O)C(=O)N[C@H](C(=O)NCC(=O)N[C@@H](CO)C(=O)N[C@@H](CC(N)=O)C(=O)N[C@H](C(=O)N1C[C@H](O)C[C@H]1C(N)=O)[C@@H](C)O)C(C)C)[C@@H](C)O [PD052] (H-RCNTATCATQRLADFLRHSSNNLK([γGlu-C20 diacid])PILPPTNVGSNT[Hyp]-NH2; disulfide 2-7 (inferred); N-terminus assumed) | Clear | Clear | 96.53% | 0.03 nM |
| CC[C@H](C)[C@H](NC(=O)[C@H](CCCCNC(=O)COCCOCCNC(=O)COCCOCCNC(=O)CC[C@H](NC(=O)CCCCCCCCCCCCCCCCCCC(=O)O)C(=O)O)NC(=O)CNC(=O)[C@H](CC(C)C)NC(=O)[C@H](CC(N)=O)NC(=O)[C@H](CC(N)=O)NC(=O)[C@H](CO)NC(=O)[C@H](CO)NC(=O)[C@H](Cc1c[nH]cn1)NC(=O)[C@H](CCCNC(=N)N)NC(=O)[C@H](CC(C)C)NC(=O)[C@H](Cc1ccccc1)NC(=O)[C@H](CC(=O)O)NC(=O)[C@H](C)NC(=O)[C@H](CC(C)C)NC(=O)[C@H](CCCNC(=N)N)NC(=O)[C@H](CCC(N)=O)NC(=O)[C@@H](NC(=O)[C@H](C)NC(=O)[C@@H]1CSSC[C@H](NC(=O)[C@@H](N)CCCNC(=N)N)C(=O)N[C@@H](CC(N)=O)C(=O)N[C@@H]([C@@H](C)O)C(=O)N[C@@H](C)C(=O)N[C@@H]([C@@H](C)O)C(=O)N1)[C@@H](C)O)C(=O)N[C@@H](CC(C)C)C(=O)N1CCC[C@H]1C(=O)N1CCC[C@H]1C(=O)N[C@H](C(=O)N[C@@H](CC(N)=O)C(=O)N[C@H](C(=O)NCC(=O)N[C@@H](CO)C(=O)N[C@@H](CC(N)=O)C(=O)N[C@H](C(=O)N1C[C@H](O)C[C@H]1C(N)=O)[C@@H](C)O)C(C)C)[C@@H](C)O [PD103] (H-RCNTATCATQRLADFLRHSSNNLGK([AEEA-AEEA-γGlu-C20 diacid])ILPPTNVGSNT[Hyp]-NH2; disulfide 2-7 (inferred); N-terminus assumed) | Clear | Clear | 98.68% | 0.033 nM |
| CC[C@H](C)[C@H](NC(=O)[C@@H]1CCCN1C(=O)CNC(=O)[C@H](CC(C)C)NC(=O)[C@H](CC(N)=O)NC(=O)[C@H](CC(N)=O)NC(=O)[C@H](CO)NC(=O)[C@H](CO)NC(=O)[C@H](Cc1c[nH]cn1)NC(=O)[C@H](CCCNC(=N)N)NC(=O)[C@H](CC(C)C)NC(=O)[C@H](Cc1ccccc1)NC(=O)[C@H](CC(=O)O)NC(=O)[C@H](C)NC(=O)[C@H](CC(C)C)NC(=O)[C@H](CCCNC(=N)N)NC(=O)[C@H](CCC(N)=O)NC(=O)[C@@H](NC(=O)[C@H](C)NC(=O)[C@@H]1CSSC[C@H](NC(=O)[C@H](CCCCN)NC(=O)COCCOCCNC(=O)COCCOCCNC(=O)CC[C@H](NC(=O)CCCCCCCCCCCCCCCCC(=O)O)C(=O)O)C(=O)N[C@@H](CC(N)=O)C(=O)N[C@@H]([C@@H](C)O)C(=O)N[C@@H](C)C(=O)N[C@@H]([C@@H](C)O)C(=O)N1)[C@@H](C)O)C(=O)N[C@@H](CC(C)C)C(=O)N1CCC[C@H]1C(=O)N1CCC[C@H]1C(=O)N[C@H](C(=O)N[C@@H](CC(N)=O)C(=O)N[C@H](C(=O)NCC(=O)N[C@@H](CO)C(=O)N[C@@H](CC(N)=O)C(=O)N[C@H](C(=O)N1C[C@H](O)C[C@H]1C(N)=O)[C@@H](C)O)C(C)C)[C@@H](C)O [PD126] ({C18 diacid-γGlu-AEEA-AEEA}-KCNTATCATQRLADFLRHSSNNLGPILPPTNVGSNT[Hyp]-NH2; disulfide 2-7 (inferred)) | Clear | Clear | 99.24% | 0.028 nM |
| CC[C@H](C)[C@H](NC(=O)[C@@H]1CCCN1C(=O)CNC(=O)[C@H](CC(C)C)NC(=O)[C@H](CCCCNC(=O)CC[C@H](NC(=O)CCCCCCCCCCCCCCCCCCC(=O)O)C(=O)O)NC(=O)[C@H](CC(N)=O)NC(=O)[C@H](CO)NC(=O)[C@H](CO)NC(=O)[C@H](Cc1c[nH]cn1)NC(=O)[C@H](CCCNC(=N)N)NC(=O)[C@H](CC(C)C)NC(=O)[C@H](Cc1ccccc1)NC(=O)[C@H](CCC(=O)O)NC(=O)[C@H](C)NC(=O)[C@H](CC(C)C)NC(=O)[C@H](CCCNC(=N)N)NC(=O)[C@H](CCC(N)=O)NC(=O)[C@@H](NC(=O)[C@H](C)NC(=O)[C@@H]1CSSC[C@H](NC(=O)[C@@H](N)CCCNC(=N)N)C(=O)N[C@@H](CC(N)=O)C(=O)N[C@@H]([C@@H](C)O)C(=O)N[C@@H](C)C(=O)N[C@@H]([C@@H](C)O)C(=O)N1)[C@@H](C)O)C(=O)N[C@@H](CC(C)C)C(=O)N1CCC[C@H]1C(=O)N1CCC[C@H]1C(=O)N[C@H](C(=O)N[C@@H](CC(N)=O)C(=O)N[C@H](C(=O)NCC(=O)N[C@@H](CO)C(=O)N[C@@H](CC(N)=O)C(=O)N[C@H](C(=O)N1CCC[C@H]1C(N)=O)[C@@H](C)O)C(C)C)[C@@H](C)O [PD007] (H-RCNTATCATQRLAEFLRHSSNK([γGlu-C20 diacid])LGPILPPTNVGSNTP-NH2; disulfide 2-7 (inferred); N-terminus assumed) | Clear | Clear |  | 0.205 nM |
| CC[C@H](C)[C@H](NC(=O)[C@@H]1CCCN1C(=O)CNC(=O)[C@H](CC(C)C)NC(=O)[C@H](CCCCNC(=O)CC[C@H](NC(=O)CCCCCCCCCCCCCCCCC(=O)O)C(=O)O)NC(=O)[C@H](CC(N)=O)NC(=O)[C@H](CO)NC(=O)[C@H](CO)NC(=O)[C@H](Cc1c[nH]cn1)NC(=O)[C@H](CCCNC(=N)N)NC(=O)[C@H](CC(C)C)NC(=O)[C@H](Cc1ccccc1)NC(=O)[C@H](CC(=O)O)NC(=O)[C@H](C)NC(=O)[C@H](CC(C)C)NC(=O)[C@H](CCCNC(=N)N)NC(=O)[C@H](CCC(N)=O)NC(=O)[C@@H](NC(=O)[C@H](C)NC(=O)[C@@H]1CSSC[C@H](NC(=O)[C@@H](N)CCCNC(=N)N)C(=O)N[C@@H](CC(N)=O)C(=O)N[C@@H]([C@@H](C)O)C(=O)N[C@@H](C)C(=O)N[C@@H]([C@@H](C)O)C(=O)N1)[C@@H](C)O)C(=O)N[C@@H](CC(C)C)C(=O)N1CCC[C@H]1C(=O)N1CCC[C@H]1C(=O)N[C@H](C(=O)N[C@@H](CC(N)=O)C(=O)N[C@H](C(=O)NCC(=O)N[C@@H](CO)C(=O)N[C@@H](CC(N)=O)C(=O)N[C@H](C(=O)N1C[C@H](O)C[C@H]1C(N)=O)[C@@H](C)O)C(C)C)[C@@H](C)O [PD088] (H-RCNTATCATQRLADFLRHSSNK([γGlu-C18 diacid])LGPILPPTNVGSNT[Hyp]-NH2; disulfide 2-7 (inferred); N-terminus assumed) | Clear | Clear | 120.04% | 0.013 nM |
